One test has as its system CWR22R. Put plainly: Antiproliferative activity against human 22Rv1 cells incubated for 120 hrs by Cell-titer Glo luminescent assay. The conditions noted are these: 22Rv1, 120 h.
Test [1] deals with Serine/threonine-protein kinase ATR (Homo sapiens, UniProt Q13535). Put plainly: Inhibition of ATR (unknown origin) assessed as reduction in p53 phosphorylation level incubated for 30 mins by TR-FRET assay. (In TR-FRET formats the signal depends on donor and acceptor labels being close together.)
Serine/threonine-protein kinase ATR, sequence (Q13535 whole entry): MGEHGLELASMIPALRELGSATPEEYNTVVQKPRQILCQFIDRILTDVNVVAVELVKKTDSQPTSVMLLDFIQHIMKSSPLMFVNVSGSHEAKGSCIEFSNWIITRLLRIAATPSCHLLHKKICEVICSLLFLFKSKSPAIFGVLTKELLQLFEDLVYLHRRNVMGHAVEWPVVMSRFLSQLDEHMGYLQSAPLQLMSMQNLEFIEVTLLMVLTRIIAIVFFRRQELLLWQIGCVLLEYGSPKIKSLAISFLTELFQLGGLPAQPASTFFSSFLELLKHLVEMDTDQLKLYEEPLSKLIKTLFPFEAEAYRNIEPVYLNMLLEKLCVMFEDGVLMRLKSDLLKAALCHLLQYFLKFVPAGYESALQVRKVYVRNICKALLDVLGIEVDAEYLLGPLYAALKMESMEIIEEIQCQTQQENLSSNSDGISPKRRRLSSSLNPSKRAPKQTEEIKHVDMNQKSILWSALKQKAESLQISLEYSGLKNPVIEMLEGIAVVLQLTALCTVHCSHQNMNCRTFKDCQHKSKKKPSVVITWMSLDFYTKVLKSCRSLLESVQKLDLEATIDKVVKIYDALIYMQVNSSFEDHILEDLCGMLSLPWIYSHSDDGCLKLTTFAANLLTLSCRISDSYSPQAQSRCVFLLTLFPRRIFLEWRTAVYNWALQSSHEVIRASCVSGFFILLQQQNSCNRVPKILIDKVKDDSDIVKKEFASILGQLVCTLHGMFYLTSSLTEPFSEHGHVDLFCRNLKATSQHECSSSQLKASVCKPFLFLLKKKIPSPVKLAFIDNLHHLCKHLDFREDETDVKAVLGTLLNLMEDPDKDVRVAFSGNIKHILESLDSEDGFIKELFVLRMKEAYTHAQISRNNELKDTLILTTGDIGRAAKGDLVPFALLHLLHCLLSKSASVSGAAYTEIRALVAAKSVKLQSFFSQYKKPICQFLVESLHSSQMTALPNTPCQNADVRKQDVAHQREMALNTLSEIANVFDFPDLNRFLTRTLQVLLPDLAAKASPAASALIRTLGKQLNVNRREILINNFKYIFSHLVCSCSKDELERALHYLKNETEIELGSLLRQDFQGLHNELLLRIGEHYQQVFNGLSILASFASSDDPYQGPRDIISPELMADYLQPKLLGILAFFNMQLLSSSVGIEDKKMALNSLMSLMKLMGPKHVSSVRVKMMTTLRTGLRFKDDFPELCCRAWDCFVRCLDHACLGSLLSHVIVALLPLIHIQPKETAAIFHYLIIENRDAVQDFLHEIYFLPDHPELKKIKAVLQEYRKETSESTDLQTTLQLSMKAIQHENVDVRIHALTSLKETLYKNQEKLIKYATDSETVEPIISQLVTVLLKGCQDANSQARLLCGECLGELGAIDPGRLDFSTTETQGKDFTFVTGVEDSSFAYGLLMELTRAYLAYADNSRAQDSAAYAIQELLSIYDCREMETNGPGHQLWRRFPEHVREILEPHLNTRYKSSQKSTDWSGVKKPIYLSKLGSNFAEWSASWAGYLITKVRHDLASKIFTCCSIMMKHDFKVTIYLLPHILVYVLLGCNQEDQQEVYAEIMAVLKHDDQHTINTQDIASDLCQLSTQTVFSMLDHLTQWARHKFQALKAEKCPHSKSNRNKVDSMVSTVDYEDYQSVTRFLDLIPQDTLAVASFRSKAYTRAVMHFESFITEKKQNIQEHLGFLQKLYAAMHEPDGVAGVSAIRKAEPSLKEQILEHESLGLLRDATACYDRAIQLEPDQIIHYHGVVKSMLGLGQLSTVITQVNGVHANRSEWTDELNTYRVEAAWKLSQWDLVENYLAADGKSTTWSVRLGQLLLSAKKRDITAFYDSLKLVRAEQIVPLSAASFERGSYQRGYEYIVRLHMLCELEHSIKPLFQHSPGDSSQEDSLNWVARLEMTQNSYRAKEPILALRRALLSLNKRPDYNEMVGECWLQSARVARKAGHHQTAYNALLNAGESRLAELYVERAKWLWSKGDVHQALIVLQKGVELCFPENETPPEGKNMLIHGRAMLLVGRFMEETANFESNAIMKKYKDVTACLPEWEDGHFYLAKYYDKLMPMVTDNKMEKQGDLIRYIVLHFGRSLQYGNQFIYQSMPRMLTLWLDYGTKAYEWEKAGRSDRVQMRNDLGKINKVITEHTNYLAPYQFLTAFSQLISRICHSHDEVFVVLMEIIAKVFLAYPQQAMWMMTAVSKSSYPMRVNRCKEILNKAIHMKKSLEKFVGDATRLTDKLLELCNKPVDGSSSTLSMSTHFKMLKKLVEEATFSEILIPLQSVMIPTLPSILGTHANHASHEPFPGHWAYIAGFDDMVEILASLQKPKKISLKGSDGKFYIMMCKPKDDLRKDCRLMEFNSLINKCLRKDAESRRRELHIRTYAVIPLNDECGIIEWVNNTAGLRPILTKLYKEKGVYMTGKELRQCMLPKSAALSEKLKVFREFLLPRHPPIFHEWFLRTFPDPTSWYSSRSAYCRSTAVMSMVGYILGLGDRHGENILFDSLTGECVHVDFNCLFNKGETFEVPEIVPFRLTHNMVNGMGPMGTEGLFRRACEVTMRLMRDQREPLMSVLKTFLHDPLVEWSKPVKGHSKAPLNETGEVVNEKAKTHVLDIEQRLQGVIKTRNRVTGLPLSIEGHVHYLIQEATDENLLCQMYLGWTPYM

For the compound `CCOc1cncc(-n2nc(C)c(-c3cc(N4CC5CCC(C4)O5)nc4c(-c5ccn[nH]5)cnn34)c2C)c1`, in the test with CWR22R, it took 0.515 µM to reach half-maximal inhibition (IC50). In the case of `Cc1nn(-c2cccnc2)c(C)c1-c1cc(N2C3CCC2COC3)nc2c(-c3ccn[nH]3)cnn12`, in the test with CWR22R, the midpoint of inhibition, the IC50, lay at 0.332 µM. `Cc1nn(-c2cccnc2)c(C)c1-c1cc(N2C[C@@H]3C[C@H]2CO3)nc2c(-c3ccn[nH]3)cnn12`: in the test with CWR22R, the IC50 (commonly the concentration needed to halve the response being measured) worked out at 4.08 µM. As for `Cc1n[nH]c(C)c1-c1cc(N2CC3CCC(C2)O3)n2ncc(-c3ccccc3)c2n1`, the IC50 in the test with CWR22R was above 10 µM; in test [1], above 0.5 µM. For the compound `Cc1nn(C2CCCNC2)c(C)c1-c1cc(N2CC3CCC(C2)O3)nc2c(-c3ccn[nH]3)cnn12` (configuration not stated), inhibition in the test on CWR22R was half-maximal at 4.53 µM (IC50). For the compound `Cc1cc(-c2cnn3c(-c4c(C)nn(-c5cccnc5)c4C)cc(N4CC5CCC(C4)O5)nc23)[nH]n1`, in the test with CWR22R, the IC50 stood at 0.15 µM. The compound `Cc1nn(-c2cncc(C(F)(F)F)c2)c(C)c1-c1cc(N2CC3CCC(C2)O3)nc2c(-c3ccn[nH]3)cnn12` had an IC50 in the test with CWR22R of 2.82 µM. In the test on CWR22R, `Cc1n[nH]c(C)c1-c1cc(N2CC3CCC(C2)O3)n2ncc(-c3ccnn3C)c2n1` had an IC50 of 6.73 µM. As for `Cc1n[nH]c(C)c1-c1cc(N2CC3CCC(C2)O3)n2ncc(-c3cnn(C)c3C)c2n1`, the IC50 is above 10 µM in the test with CWR22R and above 0.5 µM in test [1]. In the test with CWR22R, `Cc1nn(-c2cncc(Cl)c2)c(C)c1-c1cc(N2CC3CCC(C2)O3)nc2c(-c3ccn[nH]3)cnn12` came in with an IC50 of 0.675 µM. In the test on CWR22R, `Cc1n[nH]c(C)c1-c1cc(N2CC3CCC(C2)O3)nc2c(-c3ccn[nH]3)cnn12` registered an IC50 of 0.614 µM. For the compound `Cc1cncc(-n2nc(C)c(-c3cc(N4CC5CCC(C4)O5)nc4c(-c5ccn[nH]5)cnn34)c2C)c1`, the results for the IC50 (in the test on CWR22R; in test [1]) were 0.234 µM and 0.01 µM, respectively. In the test with CWR22R, `Cc1nn(-c2ccc(N)nc2)c(C)c1-c1cc(N2CC3CCC(C2)O3)nc2c(-c3ccn[nH]3)cnn12` returned an IC50 of 0.199 µM. `Cc1n[nH]c(C)c1-c1cc(N2CC3CCC(C2)O3)nc2c(-c3ccnn3C)cnn12`: the IC50 in the test with CWR22R is 6.48 µM; in test [1], above 0.5 µM. In turn, `Cc1nn(-c2cncc(F)c2)c(C)c1-c1cc(N2CC3CCC(C2)O3)nc2c(-c3ccn[nH]3)cnn12` returned an IC50 with CWR22R of 1.33 µM. `Cc1nn(-c2ccncc2)c(C)c1-c1cc(N2CC3CCC(C2)O3)nc2c(-c3ccn[nH]3)cnn12` yielded an IC50 in the test on CWR22R of 1.79 µM. For the compound `Cc1nn(-c2cncc(C(F)F)c2)c(C)c1-c1cc(N2CC3CCC(C2)O3)nc2c(-c3ccn[nH]3)cnn12`, the IC50 with CWR22R was 0.972 µM.

Compound `Cc1n[nH]c(C)c1-c1cc(N2CC3CCC(C2)O3)n2ncc(-c3cnn(C)c3)c2n1` showed an IC50 in the test on CWR22R of 0.943 µM. Still for that read-out and setting: with `Cc1n[nH]c(C)c1-c1cc(N2CC3CCC(C2)O3)n2ncc(-c3cn[nH]c3)c2n1` the figure was 1.73 µM. Compound `Cc1n[nH]c(C)c1-c1cc(C23CCC(CNC2)O3)nc2c(-c3cccs3)cnn12` (configuration not stated) returned an IC50 in the test on CWR22R of 0.988 µM. In the test with CWR22R, `Cc1nn(-c2cccnc2)c(C)c1-c1cc(N2C[C@H]3C[C@@H]2CO3)nc2c(-c3ccn[nH]3)cnn12` showed an IC50 above 10 µM. Same read-out and setting: then `Cc1nn(-c2cncnc2)c(C)c1-c1cc(N2CC3CCC(C2)O3)nc2c(-c3ccn[nH]3)cnn12`, with 1.41 µM; and `Cc1n[nH]c(C)c1-c1cc(N2CC3CCC(C2)O3)nc2c(-c3ccccc3)cnn12`, with 0.872 µM.

For the compound `COc1cncc(-n2nc(C)c(-c3cc(N4CC5CCC(C4)O5)nc4c(-c5ccn[nH]5)cnn34)c2C)c1`, the IC50 in the test with CWR22R was 0.37 µM.

In turn, `Cc1nn(C2CCNCC2)c(C)c1-c1cc(N2CC3CCC(C2)O3)nc2c(-c3ccn[nH]3)cnn12` gave an IC50 in the test on CWR22R of 4.33 µM. On the same count and under the same terms, with `Cc1nn(-c2cccnc2)c(C)c1-c1cc(N2CC3CCC(C2)O3)nc2c(-c3ccn[nH]3)cnn12` the figure was 0.216 µM. For the compound `Cc1nn(-c2cncc(Br)c2)c(C)c1-c1cc(N2CC3CCC(C2)O3)nc2c(-c3ccn[nH]3)cnn12`, inhibition in the test with CWR22R was half-maximal at 0.437 µM (IC50). Regarding `Cc1nn(-c2cncc(C#N)c2)c(C)c1-c1cc(N2CC3CCC(C2)O3)nc2c(-c3ccn[nH]3)cnn12`, the midpoint of inhibition in the test on CWR22R, the IC50, lay at 1.41 µM.

Values taken from ChEMBL document CHEMBL6103629 (J Med Chem, 2025).
